Experiments:
Format in all cases: toxicity, cell-based
[1] = system: HEK-293T; test: Incucyte cell viability with HEK293T; conditions: human, 10 µM, compound concentration 10 uM
[2] = system: Fibroblast; test: Incucyte cell viability with human fibroblast; conditions: 10 µM, compound concentration 10 uM
[3] = system: U2OS; test: Incucyte cell viability with U2OS; conditions: human, 10 µM, compound concentration 10 uM
Also: unitless GR value; below 1 slowed growth and below 0 cell loss.

| Compound | Growth Rate ([1]; 6 h, replicate number 1) | Growth Rate ([1]; 12 h, replicate number 1) | Growth Rate ([1]; 18 h, replicate number 1) | Growth Rate ([1]; 24 h, replicate number 1) | Growth Rate ([1]; 24 h, replicate number 2) | Growth Rate ([2]; 6 h, replicate number 2) | Growth Rate ([2]; 12 h, replicate number 2) | Growth Rate ([2]; 24 h, replicate number 2) | Growth Rate ([3]; 0 h, replicate number 1) | Growth Rate ([3]; 6 h, replicate number 2) | Growth Rate ([1]; 6 h, replicate number 2) | Growth Rate ([1]; 12 h, replicate number 2) | Growth Rate ([1]; 18 h, replicate number 2) | Growth Rate ([2]; 18 h, replicate number 2) | Growth Rate ([3]; 12 h, replicate number 1) | Growth Rate ([3]; 18 h, replicate number 1) | Growth Rate ([3]; 18 h, replicate number 2) | Growth Rate ([3]; 24 h, replicate number 1) | Growth Rate ([3]; 24 h, replicate number 2) | Growth Rate ([3]; 0 h, replicate number 2) | other results |
| --- | --- | --- | --- | --- | --- | --- | --- | --- | --- | --- | --- | --- | --- | --- | --- | --- | --- | --- | --- | --- | --- |
| Cl.O=S(=O)(c1cccc2c(I)cccc12)N1CCCNCC1 | -0.39 | 0.3 | 0.81 | 0.89 | 0.88 | -0.05 | 0.87 | 0.96 | -1 | 0.86 |  |  |  |  |  |  |  |  |  |  | Growth Rate ([2]; 6 h, replicate number 1): -1 |
| CC(Oc1cc(-c2cnn(C3CCNCC3)c2)cnc1N)c1c(Cl)ccc(F)c1Cl (stereo not drawn) | -0.85 | -0.78 | -0.49 | -0.28 | -0.11 | -0.95 | -0.64 | -0.44 | -1 |  | -0.51 | -0.35 | -0.18 | -0.52 | 0.53 | 0.4 | 0.45 | 0.39 | 0.5 |  | Growth Rate ([2]; 12 h, replicate number 1): -0.94; Growth Rate ([2]; 18 h, replicate number 1): -0.67; Growth Rate ([2]; 24 h, replicate number 1): -0.22; Growth Rate ([3]; 12 h, replicate number 2): 0.65 |
| COc1ncc2cc(C(=O)Nc3cc(C(=O)NCc4cccc(Cl)c4)ccc3Cl)c(=O)[nH]c2n1 | 0.22 | 0.64 | 0.51 | 0.67 | 0.79 | -0.4 | 0.79 | 0.92 |  | 0.67 | -0.03 | 0.55 | 0.64 |  |  |  | 0.97 |  | 0.97 |  | Growth Rate ([2]; 0 h, replicate number 2): 0.35; Growth Rate ([2]; 12 h, replicate number 1): -0.98; Growth Rate ([2]; 18 h, replicate number 1): -0.46; Growth Rate ([2]; 24 h, replicate number 1): 0.44 |
| Cn1cc(-c2ccc3occ(-c4cccc(-c5ccncc5)c4)c3n2)cn1 | -0.45 | -0.46 | -0.15 | 0.35 | 0.52 | -0.75 | 0.4 | 0.73 |  | 0.44 | -0.34 | 0 | 0.33 | 0.54 | 0.6 | 0.65 | 0.73 | 0.7 | 0.87 | 0.89 | Growth Rate ([2]; 0 h, replicate number 1): 0.22; Growth Rate ([2]; 12 h, replicate number 1): -0.8; Growth Rate ([2]; 18 h, replicate number 1): 0.07; Growth Rate ([2]; 24 h, replicate number 1): 0.25; Growth Rate ([3]; 6 h, replicate number 1): -0.24; Growth Rate ([3]; 12 h, replicate number 2): 0.51 |
| CC(C)(C)c1ccc(-c2coc3ccc(-c4cn[nH]c4)nc23)cc1 | 0.67 |  |  |  | 0.84 | -0.95 | -0.62 | -0.11 | 0.77 |  | 0.37 | 0.72 | 0.95 | -0.24 | 0.97 | 0.67 | 0.81 | 0.5 | 0.63 | -0.87 | Growth Rate ([2]; 0 h, replicate number 2): 0.44; Growth Rate ([2]; 6 h, replicate number 1): -0.96; Growth Rate ([2]; 24 h, replicate number 1): 0.94 |
| O=C1NCc2ccc3c(-c4cccc(Cl)c4)c[nH]c3c21 | -0.5 | -0.49 | -0.21 | -0.06 | -0.07 | -1 | -0.89 | -0.57 |  | 0.05 |  | -0.24 | -0.13 | -0.75 | -0.32 | -0.16 | -0.11 | -0.1 | -0.06 |  | Growth Rate ([2]; 12 h, replicate number 1): -1; Growth Rate ([2]; 18 h, replicate number 1): -0.89; Growth Rate ([2]; 24 h, replicate number 1): -0.46; Growth Rate ([3]; 6 h, replicate number 1): -0.34; Growth Rate ([3]; 12 h, replicate number 2): -0.15 |
| CNc1nc(NCc2ncccn2)c2c(-c3ccc4ncccc4c3)c[nH]c2n1 | 0.58 | 0.9 | 0.83 | 0.84 | 0.86 |  |  |  |  | 0.82 | 0.42 | 0.84 | 0.8 |  |  | 0.84 | 0.85 | 0.94 | 0.86 |  | Growth Rate ([2]; 0 h, replicate number 1): -0.08; Growth Rate ([2]; 0 h, replicate number 2): -0.54; Growth Rate ([2]; 12 h, replicate number 1): -0.94; Growth Rate ([2]; 18 h, replicate number 1): 0.83; Growth Rate ([3]; 6 h, replicate number 1): 0.78; Growth Rate ([3]; 12 h, replicate number 2): 0.7 |
| NC(=O)c1cc2c(-c3ccc(C(=O)NCc4ccnc(Cl)c4)s3)cccc2s1 | -0.51 | -0.4 | -0.29 | -0.23 | -0.09 | -0.95 | -0.43 | -0.11 | -0.34 | -0.51 | -0.71 | -0.32 | -0.17 | -0.25 | 0.05 | 0 | -0.03 | 0.05 | 0.03 | 0.46 | Growth Rate ([2]; 6 h, replicate number 1): -1; Growth Rate ([3]; 6 h, replicate number 1): -0.24; Growth Rate ([3]; 12 h, replicate number 2): -0.23 |
| CCN1/C(=C/C(C)=O)Sc2ccc(OC(C)=O)cc21 | -0.36 | 0.1 | 0.02 | 0.09 | 0.67 | -0.62 |  |  | 0.39 | 0.95 | 0.16 | 0.67 | 0.66 |  | 0.91 | 1 | 0.94 | 0.98 | 0.9 | -0.86 | Growth Rate ([2]; 0 h, replicate number 2): 0.08; Growth Rate ([2]; 24 h, replicate number 1): 0.91; Growth Rate ([3]; 12 h, replicate number 2): 0.62 |
| COc1cc(C(=O)N2CC[C@@H](O)[C@@H](N)C2)cc2nc(-c3cc4ccccc4n3CC3CC3)n(C)c12.Cl | 0.46 | 0.73 | 0.82 | 0.58 | 0.27 | -0.02 | 0.16 | 0.27 | -0.93 |  | -0.12 | 0.39 | 0.3 | 0.2 |  |  |  |  |  |  | Growth Rate ([2]; 6 h, replicate number 1): -1 |
| CC(C)n1cc(-c2ccc(N3CCN(C)CC3)c(NC(=O)c3ccc(-c4ccncc4)o3)c2)cn1 | -0.65 | -0.36 | -0.19 | -0.08 | 0.31 | 0.11 | 0.45 | 0.65 | -0.65 |  | -0.31 | -0.01 | 0.15 | 0.67 | 0.96 |  |  |  |  | -0.8 | Growth Rate ([2]; 0 h, replicate number 2): -0.35; Growth Rate ([2]; 6 h, replicate number 1): -0.97 |
| COc1ccc2nc3ccc(OC)cc3c(SCCCN)c2c1.Cl | -0.94 | -0.75 | -0.57 | -0.41 | 0.33 |  |  | 0.89 |  |  | 0.26 | 0.76 | 0.45 |  |  |  | 0.99 | 0.86 | 0.85 | -0.96 | Growth Rate ([2]; 0 h, replicate number 2): -0.39; Growth Rate ([2]; 6 h, replicate number 1): -1 |
| CCn1c(-c2nc3cc(C(=O)N4CCCC(N)C4)ccc3n2C)cc2ccccc21.Cl (stereo not drawn) | 0.45 |  |  |  | 0.87 | 0.59 | 0.96 | 0.77 | -0.07 |  | 0.09 | 0.8 | 0.89 | 0.78 |  |  |  |  |  | -0.69 | Growth Rate ([2]; 6 h, replicate number 1): -0.88 |
| Cc1ccc(NC(=O)c2ccc3cnccc3c2)cc1C(=O)Nc1cnc(Nc2cccc(NC3CCN(C(=O)/C=C/CN(C)C)CC3)c2)nc1 | -0.97 | -0.87 | -0.65 | -0.54 | -0.39 | -1 | -0.71 | -0.3 |  | 0.51 | -0.98 | -0.77 | -0.56 | -0.42 | 0.17 | 0.33 | 0.49 | 0.27 | 0.46 | -0.97 | Growth Rate ([2]; 0 h, replicate number 1): 0.35; Growth Rate ([2]; 0 h, replicate number 2): -0.14; Growth Rate ([2]; 12 h, replicate number 1): -0.99; Growth Rate ([2]; 18 h, replicate number 1): -0.78; Growth Rate ([2]; 24 h, replicate number 1): -0.28; Growth Rate ([3]; 6 h, replicate number 1): -0.26; Growth Rate ([3]; 12 h, replicate number 2): 0.68 |

Source: ChEMBL document CHEMBL5303304, “EUbOPEN Chemogenomics Library - IncuCyte” (2023)
